The test system of data set [1] is STAT3 phosphorylation in T47D cells. Kind of data set: Western blot of STAT3 phosphorylation, T47D. It is filed as cell-based, human. The protocol:
(§1) Therefore, in vitro experiments were performed to evaluate the effect of compound 3f on the phosphorylation of STAT3 in MCF-7 and T47D cells, utilizing our laboratory protocol. For this purpose, Western blot analysis was performed after the treatment of MCF-7 and T47D cells with compound 3f (0, 1, 3, 5 μM) and using p-STAT3 (Tyr705), p-STAT3 (Ser727), and STAT3 antibodies for blotting.
(§2) As previously reported, whole-cell lysates from cells treated with compound 3f were prepared to detect protein expression and phosphorylation using a lysis buffer [Tris (20 mM, pH 7.4), NaCl (250 mM), EDTA (2 mM, pH 8.0), Triton X-100 (0.1%), aprotinin (0.01 mg/mL), leupeptin (0.005 mg/mL), phenylmethane sulfonyl fluoride (0.4 mM), and NaVO4 (4 mM)]. To remove insoluble material, lysates were centrifuged at 13,000 rpm for 15 min.
(§3) Equal protein concentrations of cell lysate were resolved on sodium dodecyl sulfate-polyacrylamide gel electrophoresis, followed by transfer to nitrocellulose membranes as reported previously. Incubation was carried out overnight at 4 °C with antibodies after treatment with 5% skim milk. Afterward, the membranes were washed, probed with HRP-conjugated secondary antibodies for 2 h, and then visualized using chemiluminescence.
(§4) Figure 3 The lead compound 3f decreases the phosphorylation of STAT3 in MCF-7 and T47D cells in a concentration (A) and time-dependent (B) manner. MCF-7 and T47D cells were treated with the indicated concentration of 3f for 4 h. MCF-7 and T47D cells were treated with 5 µM of compound for the indicated time intervals. Thereafter, equal amounts of lysates were analyzed by Western blot analysis using antibodies against p-STAT3(Tyr705), p-STAT3(Ser727), or STAT3. The expression of each protein was quantified. β-ACTIN was used as input control.

For data set [2], the system named is MCF-10A cells. Description: Alamar Blue cell viability assay, normal MCF-10A. It is filed as cell-based. Particulars: Homo sapiens, normal MCF-10A cell viability.
Data set [3] deals with MCF-7 cells. Kind of data set: Alamar Blue cell viability assay, MCF-7. It is filed as cell-based, human. The following applies: MCF-7 cell viability. An excerpt:
(§5) The goal herein was to assess the ability of imidazopyridine-tethered pyrazolines to inhibit cell viability in mammary carcinoma cells (using the Alamar Blue assay), since pyridine-fused pyrazoles were previously shown to inhibit cell viability in various breast cancer cells. […] The low chemical stability of thio-urea-based compounds may account for the inactivity of most thiourea-conjugated pyrazolines (excluding 4g) against TNBC cells.
(§6) MCF-7 cells were procured from Procell Life Science and Technology Co. LTD, Wuhan, China. Human breast cancer T47D, BT474, and SK-BR-3 cells were obtained from American Type Culture Collection (Washington, DC, NW, USA). Cells (2000) were cultured in MEM or Leibovitz’s L-15 medium enriched with 2% FBS and maintained in a humidified atmosphere of 5% CO2 at 37 °C. A stock solution of DMSO-dissolved compounds was prepared, and this solution was diluted with culture medium as required. MCF-7 Cells (4 × 10^3) were cultured in 96-well plates for 12 h and then treated for 72 h with compounds at concentrations of […]. Using Alamar Blue, the compounds were evaluated for their inhibitory effects
Figure 2 Inhibitory effect of compounds 3f (A), 3e (B), 4g (C), and 3g (D) on the viability of MCF-7 cells. MCF-7 cells were treated with various concentrations of 2-pyrazolines for 72 h and the viability of cells was analyzed by Alamar Blue assays. The results are presented as mean ± S.E.M. of triplicate determinations.

The subject of data set [4] is STAT3 phosphorylation in MCF-7 cells. Description: Western blot of STAT3 phosphorylation, MCF-7. It is filed as cell-based, human. The protocol:
as §1, §2, §3, §4
On the technique in general: A western blot detects proteins with antibodies after separation by electrophoresis.

Data set [5] has as its system BT-474 cells. Kind of data set: Alamar Blue cell viability assay, BT-474. Particulars: for IC50: Homo sapiens, BT-474 cell viability, Alamar Blue. It is filed as cell-based, human.
Source text: as §5, §6

The subject of data set [6] is SK-BR-3 cells. Description: Alamar Blue cell viability assay, SK-BR-3. It is filed as cell-based, human. The following applies: Homo sapiens, SK-BR-3 cell viability.
Source text: as §5, §6
Background: Alamar Blue is a resazurin reagent that responds to reducing activity.

The subject of data set [7] is nuclear translocation of STAT3 in T47D cells. Description: Immunocytochemistry of STAT3 nuclear translocation, T47D. The following applies: 10 μM for 4 h (method) / 5 μM (Figure 10 legend). The format is cell-based, human. The protocol: (§7) Finally, we attempted to understand the effect of compound 3f on the blocking of pSTAT3 into nuclear functionally since pSTAT3 dimers could enter the nucleus to give transcription. For this purpose, we conducted an immunocytochemistry assay using MCF-7 and T47D cells. […] We also analyzed the distribution of phospho-STAT3 in the nucleus and cytoplasm using fluorescent-labeled antibodies.
(§8) As described earlier, STAT3 phosphorylation in cells was quantified. After compound 3f treatment (10 μM for 4 h), cells were fixed for 20 min with paraformaldehyde (4%). Thereafter, cells were treated with 0.2% Triton X-100 in phosphate-buffered saline for permeabilization, followed by blocking with 5% bovine serum albumin for 1 h. Then, the preparation was incubated overnight at 4 °C with a rabbit polyclonal anti-human STAT3 antibody (dilution, 1:100). […] The slides were mounted and analyzed under an Olympus FluoView FV1000 confocal microscope (Tokyo, Japan).
(§9) Figure 10 The nuclear localization of STAT3 in MCF-7 (A) and T47D (B) cells was inhibited by compound 3f. MCF-7 and T47D cells were treated with the compound 3f (5 μM), and then analyzed for intracellular distribution by immunocytochemistry. […] The fluorescence intensity of p-STAT3 and STAT3 was performed. […]

Data set [8] concerns TNBC cells. Description: Effect against TNBC cells. The format is cell-based. Particulars: in words.
Source text: as §5

For data set [9], the system named is nuclear translocation of STAT3 in MCF-7 cells. Description: Immunocytochemistry of STAT3 nuclear translocation, MCF-7. The format is cell-based, human. Particulars: MCF-7, immunocytochemistry, 10 μM for 4 h (method) / 5 μM (Figure 10 legend). The protocol:
as §7, §8, §9

The test system of data set [10] is T47D cells. Description: Alamar Blue cell viability assay, T47D. The format is cell-based, human. Particulars: for IC50: Homo sapiens, T47D cell viability, Alamar Blue.
Source text: as §5, §6

Data set [11] relates to breast cancer cells. Further details: method as in PMID 33126089. Particulars: read-out: IC50 anti-proliferation against breast cancer cells; cited from earlier work.
Data set [12] deals with IL-6-induced STAT3 phosphorylation in patient-derived HGG cells. Further details: method as in PMID 31361777. Particulars: cited from earlier work.
The test system of data set [13] is phospho-STAT3 in hepatocellular carcinoma cells. Further details: method as in PMID 30261753. Particulars: cited from earlier work.
The mark [14] stands for this setting: T47D, 5 µM, indicated time intervals.
Where [15] appears, read: MCF-7, 5 µM, indicated time intervals.

Some results are limits rather than exact numbers.

For the compound `Cc1ccc2nc(C)c(C3=NN(C(=O)CN4CCN(c5cccc(Cl)c5Cl)CC4)C(c4cccc([N+](=O)[O-])c4)C3)n2c1` (centres unmarked) [Compound 3f, 2-(4-(2,3-Dichlorophenyl)piperazin-1-yl)-1-(3-(2,6-dimethylimidazo[1,2-a]pyridin-3-yl)-5-(3-nitrophenyl)-4,5-dihydro-1H-pyrazol-1-yl)ethanone], the melting point lay within 122 to 124 °C. For the same compound, in data set [1] (T47D, 0, 1, 3, 5 μM, 4 h), the “phosphorylation level of STAT3 at Ser727, dose dependence” value is on record as “reduced the phosphorylation level”; the “phosphorylation level of STAT3 at Tyr705, dose dependence” value is on record as “reduced the phosphorylation level”; the “total STAT3 protein expression” value was “without affecting the total STAT3 protein expression”. Moreover, in data set [1] (setting [14]), the “phosphorylation of STAT3 at Ser727, time dependence” value is “reduced the phosphorylation” and the “phosphorylation of STAT3 at Tyr705, time dependence” value is “reduced the phosphorylation”. Besides, the IC50 in data set [2] was > 100 µM. In [3] (Homo sapiens, MCF7, 72 h), this compound had an IC50 of 9.2 µM. In data set [3] (72 h), the IC50 was 9.27 ± 0.97 µM. For the same compound, in data set [4] (MCF-7, 0, 1, 3, 5 μM, 4 h), the “phosphorylation level of STAT3 at Ser727, dose dependence” value is on record as “reduced the phosphorylation level”; the “phosphorylation level of STAT3 at Tyr705, dose dependence” value is “reduced the phosphorylation level”; the “total STAT3 protein expression” value is given as “without affecting the total STAT3 protein expression”. For the same compound, in data set [4] (setting [15]), the “phosphorylation of STAT3 at Ser727, time dependence” value was “reduced the phosphorylation” and the “phosphorylation of STAT3 at Tyr705, time dependence” value is on record as “reduced the phosphorylation”. In data set [5], this compound registered an IC50 of 13.9 ± 1.32 µM. Further, the “viability of BT-474 cells” value in data set [5] (in words) was “inhibited in a dose-dependent manner”. Moreover, the IC50 in data set [6] was > 100 µM. Further, in data set [7], the “nuclear translocation of STAT3” value is listed as “inhibited the nuclear translocation” and the “nuclear translocation of pSTAT3” value is reported as “block the nuclear translocation”. In [8], the “effect against TNBC cells” value is “significant effect”. Moreover, in data set [9], the “nuclear translocation of STAT3” value is reported as “inhibited the nuclear translocation” and the “nuclear translocation of pSTAT3” value is “block the nuclear translocation”. The same compound returned an IC50 in data set [10] of 23.5 ± 1.25 µM. Also, the “viability of T47D cells” value in data set [10] (in words) is listed as “inhibited in a dose-dependent manner”.

Consider `Cc1ccc2nc(C)c(C3=NN(C(=S)Nc4ccc([N+](=O)[O-])cc4)C(c4cccc([N+](=O)[O-])c4)C3)n2c1` (centres unmarked) [Compound 4b, 3-(2,6-Dimethylimidazo[1,2-a]pyridin-3-yl)-5-(3-nitrophenyl)-N-(4-nitrophenyl)-4,5-dihydro-1H-pyrazole-1-carbothioamide], for which the melting point lay within 230 to 232 °C. For the same compound, the IC50 in data set [2] was > 100 µM. For the same compound, the IC50 in data set [3] (Homo sapiens, MCF7, 72 h) came to 65.4 ± 1.82 µM. For the same compound, in data set [5], the IC50 came to 7.26 ± 0.54 µM. Also, the IC50 in data set [6] is 69 ± 1.41 µM. The “effect against TNBC cells” value in [8] is recorded as “significant effect”. This compound also registered an IC50 in data set [10] of 45.6 ± 1.43 µM.

For the compound `COc1cc(Nc2cc(-c3ccnn3C)cc3cc(C(C)=O)oc23)cc(OC)c1` [Compound C6], the IC50 in data set [11] is 0.16 µM.

As for `CC(C)CCc1cc(-c2ccc(Br)cc2)n(-c2ccc(S(N)(=O)=O)cc2)n1` [MNS1-Leu], in [12], the “Akt, STAT1, JAK2, or ERK1/2 phosphorylation” value was “without adversely affecting” and the “IL-6-induced STAT3 phosphorylation” value is on record as “inhibited”.

As to `COc1cc(-c2cc3ccccc3[nH]2)[nH]c1-c1nc2cc(Br)cnc2[nH]1` [compound 16], in data set [13], the “level of phospho-STAT3 and downstream signaling cascades” value was “reduce the level”.

Broadly, the melting point is the temperature, or range, at which the solid turns liquid.

The record behind these values is article PMC9952374, “De Novo Design of Imidazopyridine-Tethered Pyrazolines That Target Phosphorylation of STAT3 in Human Breast Cancer Cells” (Bioengineering, 2023).
